Laboratory results from patent US12233063B2, “Compositions and methods for treating eye disorders” (THE REGENTS OF THE UNIVERSITY OF MICHIGAN, priority 2017, dated 2025).
Read-outs that look alike come from different tables or passages of the source.

What was measured:
[1] = target: T1, human recombinant PKM2 (Homo sapiens, UniProt P14618); assay: Pyruvate kinase activity enzyme assay, recombinant enzyme (LDH-coupled); format: biochemical; conditions: read-out: max activation
T1 construct: purchased Sigma SAE0021
Experimental: Pyruvate Kinase Activity Enzyme Assay. Recombinant Enzyme. A continuous, enzyme-coupled assay, which uses lactate dehydrogenase (LDH) and measures the depletion of NADH via absorbance at 340 nm was utilized to determine the pyruvate kinase activity. […] The decrease in absorbance at 340 nm was monitored using a Spectrostar Omega plate reader (BMG LABTECH Inc., Cary, NC, USA). Initial velocities were calculated with the MARS software. Data were normalized to DMSO (dimethyl sulfoxide)-treated PKM2 activity.

[2] = target: T2, pyruvate kinase (PK) in 661W cells (Mus musculus, UniProt P52480); assay: Pyruvate kinase activity in lysates of 661W cells treated for 2 hours; format: cell-based; conditions: for AC50: 2 hours incubation
T2 construct: endogenous in cells; host or cells: 661W photoreceptor cell line
Experimental: Cell Culture. The 661W photoreceptor cell line was generously provided by Dr. Muayyad al-Ubaidi (Department of Cell Biology, University of Oklahoma Health Sciences Center, Oklahoma City, OK, USA) (al-Ubaidi, M. R. et al. J. Cell Biol. 119, 1681-1687 (1992)). The 661W cell line was maintained in Dulbecco's modified Eagle's medium containing 10% fetal bovine serum, 300 mg/L glutamine, 32 mg/L putrescine, 40 μL/L of β-mercaptoethanol, and 40 μg/L of both hydrocortisone 21-hemisuccinate and progesterone. The media also contained penicillin (90 units/mL) and streptomycin (0.09 mg/mL). Cells were grown at 37° C. in a humidified atmosphere of 5% CO2 and 95% air.
Cell culture. For cell line experiments, media was replaced prior to the start of treatment with DMSO or ML-265. […] Cells were lysed and homogenized in RIPA Lysis and Extraction Buffer (Catalog number: 89900, Life Technologies Corporation, Grand Island, NY) with protease inhibitors (Complete-Mini, Roche Diagnostics, Indianapolis, IN) and clarified by centrifugation at 10,000 rpm for 10 minutes. Five microliters of the supernatant was used to assess pyruvate kinase activity, and the activity was normalized to total protein content as previously described (Walsh et al., supra).

[3] = target: T3, pyruvate kinase (PK) (Rattus norvegicus, UniProt P11980); assay: In vivo pyruvate kinase activation in rat retina after intravitreal injection; conditions: rats
T3 construct: from tissue; host or cells: retina of Brown-Norway adult rats
Experimental: Animals. Intravitreal injections of ML-265 or vehicle (DMSO) were performed in Brown-Norway, adult rats. Rodents were anesthetized with a mix of ketamine (100 mg/mL) and xylazine (20 mg/mL), and pupils were dilated with topical phenylephrine (2.5%) and tropicamide (1%). A 25-gauge microvitreoretinal blade (Walcott Rx Products, Ocean View, N.J.) was used to create a sclerotomy located 1-2 mm posterior to the limbus with care taken to avoid lens damage. A blunt, 34-gauge cannula was introduced through the sclerotomy into the vitreous cavity. […] Four hours after intravitreal injection, retinas from experimental rat eyes were dissected from the RPE-choroid, homogenized, and lysed in RIPA Lysis and Extraction Buffer with protease inhibitors. The assay was carried out using 4 microliters of rat retinal lysate in an enzyme buffer mixture (50 mM Tris-HCl, pH 7.4, 100 mM KCl, 5 mM MgCl2, 1 mM ADP, 0.5 mM PEP, and 0.2 mM NADH) and 8 units of LDH similar to what has been previously described (Wubben et al., supra; Raj ala et al., supra). Pyruvate kinase activity was normalized to total protein in each retinal lysate.
The retinas of these animals were then harvested 15 days after injection and assayed for PK activity (FIG. 20).

[4] = test system: genes involved in glucose metabolism; assay: Quantitative PCR of glucose metabolism genes in treated rat retinas; format: in vivo; conditions: 2 μL of 7.5 mM intravitreal, 3 days, fold change cut-off of 2, vs untreated and DMSO
Experimental: Quantitative Real-Time PCR. Intravitreal injections of ML-265 or vehicle (DMSO) were performed in Brown-Norway, adult rats as described above. […] Left eyes were injected with ML-265 or DMSO. The right eye served as the control, with all steps of the procedure performed, except for introduction of the blunt cannula and injection of ML-265 or DMSO. Retinas were harvested 3 days post-injection.
Total RNA was purified from retinal tissues of rats using RNeasy Mini kit (Qiagen, Cat No./ID: 74104) and QIAshredder (Qiagen, Cat No./ID: 79654). cDNA was synthesized using RT^2 First Strand Kit (Cat. No./ID: 330401) according to the manufacturer's instructions. Quantitative PCR was performed in at least triplicate for the different experimental groups using the Rat Glucose Metabolism RT^2 Profiler™ PCR Array (Qiagen, Cat No./ID: PARN-006Z). This PCR array allows simultaneous profiling of 84 genes involved in glucose metabolism and includes housekeeping genes for normalization. Reactions were performed and monitored using a CFX96 real time PCR system (Bio-Rad Laboratories), 1 cycle at 95° C. for 10 min followed by 40 cycles at 95° C. for 15 sec, 60° C. for 1 min. Data analysis was performed using the RT^2 Profiler™ PCR Array Data Analysis Template from Qiagen. Those genes whose relative expression level was low or not detected in all experimental groups were excluded from analysis. […]

[5] = test system: caspase 8; assay: Caspase 8 activity assay in 661W cells; format: cell-based; conditions: 8 hours
Experimental: (§1) Caspase Activity Assay. Luminescent assay kits (Caspase-Glo 8 and 3/7 Assay Systems, Promega, Madison, WI, Cat Nos. G8200 and G8090, respectively) were utilized to measure caspase 8 and caspase 3/7 activity according to the manufacturer's instructions. The 661W cells were seeded in white-walled 96-well plates at 2,500 cells/well for 24 hours prior to treatment. […] Caspase activity was measured at 8 hours status post treatment by incubating the cells with substrate for 1 hour according to the manufacturer's instructions. Luminescence was measured in a plate reader luminometer (BMG Labtech, Inc, Cary, NC).

[6] = test system: caspase 3/7; assay: Caspase 3/7 activity assay in 661W cells; format: cell-based; conditions: 8 hours
Experimental: as §1

[7] = test system: 661W cells; assay: Cell viability of 661W cells (RealTime-Glo MT); format: cell-based; conditions: 48 hours; for cell viability above DMSO-treated cells in standard tissue culture conditions / less cell death as compared to vehicle: FasL
Experimental: Cell viability. Cell viability was measured using a luminescent assay kit not based on ATP (RealTime-Glo MT Cell Viability Assay, Promega, Madison, WI, Cat No. G9711). 661W cells were seeded in 96-well plates (Nunc, Rochester, NY) at 2,500 cells/well 24 hours prior to treatment. […] Cell viability was measured 48 hours after treatment according to the manufacturer's instructions. […] Viability was again assessed at 48 hours after addition of FasL and HA Luminescence was measured in a plate reader luminometer (BMG Labtech, Inc, Cary, NC).

[8] = Ocular pharmacokinetics after single intravitreal injection, aqueous humor; format: in vivo, Dutch-belted rabbits; conditions: male, Dutch-belted, other: intravitreal, rabbit aqueous humor
Experimental: Pharmacokinetics. Pharmacokinetic studies were performed in Dutch-belted rabbits. As previously described, male rabbits were anesthetized with inhalant anesthesia (sevoflurane) prior to each aqueous humor collection or intravitreal injection. An external heat source was used to prevent hypothermia. […] A Flynn pediatric lid speculum was placed in the eye and betadine was applied to the injection site. The temporal sclera was marked with a caliper 2 mm from the limbus. […] Delivery of the compound into the eye was confirmed via clinical inspection (Smith, A. et al. J Ocul Pharmacol Ther 34, 477-485 (2018)). An aqueous humor sample (100 microliters) was collected from each eye prior to intravitreal injection to serve as a baseline control. A 30-gauge needle on a 1 ml syringe was used to enter the anterior chamber of the eye and aspirate the aqueous humor in a controlled fashion. […] Samples were analyzed by LC-MS/MS (liquid chromatography-mass spectrometry/mass spectrometry). […] Rabbits are the most commonly used animals in intravitreal pharmacokinetic studies with good correlation to the human eye (Del Amo, E. M. & Urtti, A. Exp. Eye Res. 137, 111-124 (2015)). As described above, two different concentrations were injected into the vitreous of rabbits, and the aqueous humor was sampled at various times thereafter. […]

[9] = test system: caspase 8; assay: Caspase 8 activity in experimental retinal detachment; format: in vivo, Brown-Norway rats; conditions: 3 days after retinal detachment, subretinal injection
Experimental: Experimental Model of Retinal Detachment. Detachments were created in Brown-Norway, adult rats as previously described (Wubben et al., supra; Besirli et al., 2010 supra; Zacks, D. N. et al. Invest. Ophthalmol. Vis. Sci. 44, 1262-1267 (2003); Zacks, D. N., et al. Invest. Ophthalmol. Vis. Sci. 45, 4563-4569 (2004); Besirli, C. G., et al. Invest. Ophthalmol. Vis. Sci. 52, 4193-4199 (2011)). Briefly, rodents were anesthetized with a mix of ketamine (100 mg/mL) and xylazine (20 mg/mL), and pupils were dilated with topical phenylephrine (2.5%) and tropicamide (1%). A 25-gauge microvitreoretinal blade (Walcott Rx Products, Ocean View, N.J.) was used to create a sclerotomy located 1-2 mm posterior to the limbus with care taken to avoid lens damage. […]
1 tablet of protease inhibitor (Complete Mini; Roche Diagnostics, Indianapolis, IN) and 1 tablet of phosphatase inhibitor (PhosSTOP; Roche Diagnostics, Indianapolis, IN) per 10 mL were added to the lysis buffer. The homogenates were centrifuged at 10,000 g for 10 minutes at 4° C., and total protein concentration of the supernatant was determined using a Micro BCA protein assay kit (ThermoScientific, Rockford, IL). Substrate was incubated with 50 μg of protein in a white-walled 96 well-plate at room temperature for 1 hour and luminescence was measured as above. […]

[10] = test system: H1299 cell xenografts; conditions: cited from earlier work
[11] = 15 days after single intravitreal injection of 2 μL of 7.5 mM
[12] = 500 ng/mL FasL and 250 ng/mL HA
[13] = standard tissue culture conditions

T2 sequence (P52480 whole entry): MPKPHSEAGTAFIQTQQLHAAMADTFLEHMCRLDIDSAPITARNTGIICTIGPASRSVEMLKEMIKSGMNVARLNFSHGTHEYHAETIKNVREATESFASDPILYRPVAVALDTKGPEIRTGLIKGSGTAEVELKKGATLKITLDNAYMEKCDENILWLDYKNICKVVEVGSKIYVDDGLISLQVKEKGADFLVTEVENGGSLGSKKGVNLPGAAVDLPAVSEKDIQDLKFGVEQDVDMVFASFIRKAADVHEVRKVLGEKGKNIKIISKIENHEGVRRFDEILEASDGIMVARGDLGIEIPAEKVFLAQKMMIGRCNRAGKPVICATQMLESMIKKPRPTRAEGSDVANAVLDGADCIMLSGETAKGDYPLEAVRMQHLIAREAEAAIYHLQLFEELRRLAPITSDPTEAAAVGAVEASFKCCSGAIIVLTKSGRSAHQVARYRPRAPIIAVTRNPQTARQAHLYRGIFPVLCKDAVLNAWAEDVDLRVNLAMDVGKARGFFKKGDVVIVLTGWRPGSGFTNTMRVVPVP
T3 sequence (P11980 1-531 isoform P11980-2): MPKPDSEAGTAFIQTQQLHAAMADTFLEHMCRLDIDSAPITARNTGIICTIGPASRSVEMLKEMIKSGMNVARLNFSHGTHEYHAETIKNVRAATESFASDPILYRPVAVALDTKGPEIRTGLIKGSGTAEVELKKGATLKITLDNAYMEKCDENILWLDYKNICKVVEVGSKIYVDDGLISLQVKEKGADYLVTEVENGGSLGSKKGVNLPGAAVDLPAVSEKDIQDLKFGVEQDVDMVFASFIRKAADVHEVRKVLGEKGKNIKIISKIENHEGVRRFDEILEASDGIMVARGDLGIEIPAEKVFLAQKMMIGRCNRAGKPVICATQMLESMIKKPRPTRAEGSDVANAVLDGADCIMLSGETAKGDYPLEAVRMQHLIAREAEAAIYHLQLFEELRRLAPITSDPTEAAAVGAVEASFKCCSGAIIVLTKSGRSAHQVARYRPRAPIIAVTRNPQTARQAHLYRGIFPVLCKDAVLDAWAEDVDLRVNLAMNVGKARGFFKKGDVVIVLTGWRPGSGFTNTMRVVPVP
T1 sequence (P14618 whole entry): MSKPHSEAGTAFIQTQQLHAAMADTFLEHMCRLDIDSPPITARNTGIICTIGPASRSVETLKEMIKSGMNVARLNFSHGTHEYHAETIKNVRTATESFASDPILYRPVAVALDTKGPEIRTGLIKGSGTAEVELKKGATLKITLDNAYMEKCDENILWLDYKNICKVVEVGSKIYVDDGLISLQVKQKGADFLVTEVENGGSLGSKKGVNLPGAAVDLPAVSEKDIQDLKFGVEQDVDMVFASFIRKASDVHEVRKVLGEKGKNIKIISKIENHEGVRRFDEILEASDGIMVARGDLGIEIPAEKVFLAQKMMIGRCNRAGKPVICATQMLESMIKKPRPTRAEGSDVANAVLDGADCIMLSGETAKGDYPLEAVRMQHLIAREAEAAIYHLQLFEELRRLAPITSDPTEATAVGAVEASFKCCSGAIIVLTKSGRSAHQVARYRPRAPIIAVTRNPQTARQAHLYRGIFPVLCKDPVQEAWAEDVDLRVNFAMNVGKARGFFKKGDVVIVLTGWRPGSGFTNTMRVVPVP

## Cn1c2cc([S+](C)[O-])sc2c2cnn(Cc3cccc(N)c3)c(=O)c21 (stereo not drawn) [ML-265]
[1]
  Emax: > 250%
[2]
  increase in PK activity: 236%
  AC50: comparable to that with recombinant protein
[2]; read-out: AC50
  AC50: 22 nM
[3]; rat, intravitreal injection, saturating concentrations, read-out: maximum activation of PK
  Emax: ≤ 170%
[3]; [11]
  average in vivo PK activation: 43%
  median PK activation above DMSO treated retinas: 38%
[3]; intravitreal injection, retinas 4 hours after injection
  AC50: 59 nM
[3]; intravitreal injection, saturating concentrations
  maximum activation of PK: 170%
[4]
  normalized gene expression patterns, glucose metabolism genes: very similar
[5]; [12]
  caspase 8 activation: significantly decreased
[5]; [13]
  caspase 8 activity: no significant effect
[6]; [12]
  caspase 3/7 activation: significantly decreased
[6]; [13]
  caspase 3/7 activity: no significant effect
[7]; 200 nM ML-265
  cell viability above DMSO-treated cells in standard tissue culture conditions: 2%
  less cell death as compared to vehicle: 109%
[7]; 2 μM ML-265
  cell viability above DMSO-treated cells in standard tissue culture conditions: 6%
  less cell death as compared to vehicle: 123%
[7]; [13]
  cell viability: no significant effect
[8]; 23 mM, 50 microliters per eye, highest concentration (1 mM final vitreous), read-out: t1/2 terminal phase (converted)
  half-life: 177 h
[8]; between 6 and 48 hours, 100 μM and 1 mM final vitreous concentration, read-out: t1/2 initial phase (converted)
  half-life: 7.8 h
[9]
  caspase 8 activity vs vehicle: statistically significantly less
[10]; mice bearing H1299 cell xenografts
  tumor size and occurrence: reduce tumor size and occurrence
[10]; over 7 weeks of continuous drug exposure
  toxicity: No toxicity was observed
